The values below come from patent publication US12325022B2, “Microfluidic device, system, and method for the study of organisms” (ECOLE POLYTECHNIQUE FEDERALE DE LAUSANNE (EPFL), priority 2014, dated 2025).

Entries after “also recorded” stand apart in the source; their conditions may differ.

Test [1] concerns N2 wild-type C. elegans worms and their embryos. The test can be described thus: on-chip 5-FU treatment of worms with monitoring of embryo development in the incubator array. In kind it is in vivo. The conditions noted are these: worms treated on-chip from L4 stage with 2 mM in M9 buffer at 25° C.; embryos monitored for 12 h (array pictures at 600 minutes).
Experimental: Bar graphs are expressed as mean+SEM, *** p≤0.001.
Wild-type worms were isolated in the culture chamber at the L4 larval stage and treated on-chip with 5-FU at a concentration of 2 mM, while being cultured at 25° C. towards the adult stage. Subsequently, embryos were transferred to the incubator array and monitored for 12 h.
Test [2] deals with wild-type C. elegans. The following applies: sigmoid fit; paralyzed worms between 30 and 40 minutes after tetramisole injection.
Experimental: (§1) The aim of the experiment was to correlate the concentration of the drug with the number of paralyzed worms over time, and to trace a dose-response curve for this drug.
(§2) L1 specimens of wild-type C. elegans have been injected in the chip with the above-described protocol and fed them for 2-3 days to get adult worms. […] The wells were plugged in the inlet and sucked with a syringe from the outlet at total outflows between 100-200 nL/s for 40-80 minutes. The procedure was recorded in real-time for all the chambers at the same time by using a stereo-microscope. It was used a suitable ring-shape back-illumination to enhance the contrast and make the adult worms much lighter than the background.
(§3) Image analysis was done afterwards directly on the video recorded: the number of paralyzed worms per chamber were counted every 10 minutes from the beginning of the drug injection, and the total percentage of paralyzed worms per channel (1 channel=1 concentration) was calculated.
Test [3] deals with wild-type C. elegans. The test can be described thus: whole plant or invertebrate. The conditions noted are these: Caenorhabditis elegans, read-out: EC50 of dose-response curve (mean percentage of paralyzed worms).
Experimental: as §1, §2, §3

For `O=c1[nH]cc(F)c(=O)[nH]1` [5-FU, 5-fluorouracil], in test [1], the “development of embryos laid by treated worms” value is “All embryos prematurely died; also recorded: blocked development”.
What is called EC50 is the concentration at which the effect is half-maximal. Take `c1ccc(C2CN3CCSC3=N2)cc1` (stereo not drawn) [tetramisole]: the “Hill slope of dose-response curve (paralyzed worms)” value with wild-type C. elegans [2] is “about 0.02 μM”. In the test with wild-type C. elegans [3], the EC50 is about 57 µM.
